Test results reported in ChEMBL document CHEMBL1155809, “Design, synthesis, and antihepatocellular carcinoma activity of nitric oxide releasing derivatives of oleanolic acid” (J Med Chem, 2008).
The source made the active and inactive calls. No cut-off for these calls is given here.

Key:
[1] = system: HepG2; assay: Cytotoxicity against human HepG2 cells assessed as cell death at 0.001 uM after 24 hrs by lactate dehydrogenase release assay; format: functional
[2] = system: HepG2; assay: Cytotoxicity against human HepG2 cells assessed as cell death at 1 uM after 24 hrs by lactate dehydrogenase release assay; format: functional
[3] = system: MCF7; assay: Cytotoxicity against human MCF7 cells assessed as levels of nitric oxide production at 100 uM after 30 to 300 mins by colorimetric assay; format: functional, cell-based
[4] = Cytotoxicity against human Hep3B cells assessed as cell death at 0.01 uM after 24 hrs by lactate dehydrogenase release assay; format: functional, Hep 3B2
[5] = system: HepG2; assay: Cytotoxicity against human HepG2 cells assessed as cell death at 0.01 uM after 24 hrs by lactate dehydrogenase release assay; format: functional
[6] = system: HeLa; assay: Cytotoxicity against human HeLa cells assessed as levels of nitric oxide production at 100 uM after 30 to 300 mins by colorimetric assay; format: functional, cell-based
[7] = system: HEK293; assay: Cytotoxicity against human HEK293 cells assessed as levels of nitric oxide production at 100 uM after 30 to 300 mins by colorimetric assay; format: functional, cell-based
[8] = system: HepG2; assay: Cytotoxicity against human HepG2 cells assessed as cell death at 0.1 uM after 24 hrs by lactate dehydrogenase release assay; format: functional
[9] = system: HepG2; assay: Cytotoxicity against human HepG2 cells assessed as levels of nitric oxide production at 100 uM after 30 to 300 mins by colorimetric assay; format: functional, cell-based
[10] = system: Hep 3B2; assay: Cytotoxicity against human Hep3B cells assessed as levels of nitric oxide production at 100 uM after 30 to 300 mins by colorimetric assay; format: functional, cell-based
[11] = Antitumor activity against human Hep3B cells xenografted in non-obese diabetic SCID mouse assessed as reduction in tumor size at 15 mg/kg, ip after 35 days; format: functional, Hep 3B2; conditions: route intraperitoneal
[12] = system: MCF7; assay: Cytotoxicity against human MCF7 cells assessed as cell death by lactate dehydrogenase release assay; format: functional, cell-based
[13] = Cytotoxicity against human Hep3B cells assessed as cell death at 0.1 uM after 24 hrs by lactate dehydrogenase release assay; format: functional, Hep 3B2
[14] = system: Mus musculus; assay: Toxicity in BALB/c mouse at 15 to 100 mg/kg, ip daily for 3 days assessed after 15 days; format: organism-based; parameters: dose 15-100 mg/kg, route intraperitoneal; conditions: in vivo, 360 h
[15] = Antitumor activity against human Hep3B cells xenografted in non-obese diabetic SCID mouse assessed as reduction in tumor weight at 15 mg/kg, ip after 35 days; format: functional, Hep 3B2; conditions: route intraperitoneal
[16] = Cytotoxicity against human Hep3B cells assessed as cell death at 0.001 uM after 24 hrs by lactate dehydrogenase release assay; format: functional, Hep 3B2
[17] = system: PC-3; assay: Cytotoxicity against human PC3 cells assessed as levels of nitric oxide production at 100 uM after 30 to 300 mins by colorimetric assay; format: functional, cell-based
[18] = Cytotoxicity against human Hep3B cells assessed as cell death at 1 uM after 24 hrs by lactate dehydrogenase release assay; format: functional, Hep 3B2
[19] = system: PC-3; assay: Cytotoxicity against human PC3 cells assessed as cell death by lactate dehydrogenase release assay; format: functional, cell-based
[20] = system: HeLa; assay: Cytotoxicity against human HeLa cells assessed as cell death by lactate dehydrogenase release assay; format: functional, cell-based
[21] = system: HEK293; assay: Cytotoxicity against HEK293 cells assessed as cell death by lactate dehydrogenase release assay; format: functional, cell-based; conditions: Homo sapiens

Structure (SMILES)	Activity [1] [%]	Activity [2] [%]	Activity [3]	Activity [4] [%]	Activity [5] [%]	Activity [6]	Activity [7]	Activity [8] [%]	Activity [9]	Activity [10]	Activity [11] [mm3]	Activity [12]	Activity [13] [%]	Activity [14]	Activity [15] [g]	Activity [16] [%]	Activity [17]	Activity [18] [%]	Activity [19]	Activity [20]	further results
CC1(C)CC[C@]2(C(=O)O)CC[C@]3(C)C(=CC[C@@H]4[C@@]5(C)CC[C@H](O)C(C)(C)[C@@H]5CC[C@]43C)[C@@H]2C1 [OLEANOLIC_ACID]	0	0	inactive	0	0	inactive	inactive	0	Active	Active	668	inactive	0	Non-toxic	0.961	0	inactive	0	inactive	inactive	Activity [21]: inactive
CC(CCOc1no[n+]([O-])c1S(=O)(=O)c1ccccc1)OC(=O)CCC(=O)O[C@H]1CC[C@]2(C)[C@H]3CC=C4[C@@H]5CC(C)(C)CC[C@]5(C(=O)O)CC[C@@]4(C)[C@]3(C)CC[C@H]2C1(C)C (stereo partly drawn)	1.7	100	inactive	14.23	13.34	inactive	inactive	93.5	Active	Active	232	inactive	92.4	Non-toxic	0.262	4.7	inactive	100	inactive	inactive	Activity [21]: inactive
CC(CCOc1no[n+]([O-])c1S(=O)(=O)c1ccccc1)OC(=O)[C@]12CCC(C)(C)C[C@H]1C1=CC[C@@H]3[C@@]4(C)CC[C@H](O)C(C)(C)[C@@H]4CC[C@@]3(C)[C@]1(C)CC2 (stereo partly drawn)	0	89.21	inactive	11.05	6.67	inactive	inactive	55.11	Active	Active	289	inactive	63.51	Non-toxic	0.332	0	inactive	92.18	inactive	inactive	Activity [21]: inactive
